pEC50: −log10 of the molar value. Counter-ions that a name gives are not always drawn.
Tested on: progranulin (PGRN)
Assay: progranulin induction cellular assay (PGRN assay), ELISA-based readout
Conditions: PGRN assay as described: mouse primary microglia, primary cortical neurons and BV-2 cell lines; secreted mouse PGRN in medium by ELISA; cell type for Table B not specified
Description: Cellular Assays: To measure the efficacy of compounds, a progranulin induction cellular assay in mouse primary microglia (pMG), primary cortical neurons, and BV-2 cell lines is used. BV-2 cells are split the day before plating into a 96 well plate format at approximately 80%. Cells should be plated the day before and allowed for 1 hour attachment period and for 16 hour incubation. Levels of progranulin secreted into the cell culture medium or retained in the cell lysate can be quantified using an ELISA-based readout and measurement of secreted mouse PGRN in the medium was assessed by the methodology published by Ghidoni et al. 2012. Standard ELISA kits to measure PGRN are available from vendors such as Adipogen, R&D, and Biovendor.
Table B below presents the results of a PGRN assay as described above.

Row | Structure (SMILES) | pEC50
1 | O=C(OC12CC(N3CCOCC3)(C1)C2)N1CCc2ccccc2[C@@H]1c1ccc(F)cc1 [Compound 4049, 3-Morpholinobicyclo[1.1.1]pentan-1-yl (S)-1-(4-fluorophenyl)-3,4-dihydroisoquinoline-2(1H)-carboxylate hydrochloride] | < 5.00
2 | N[C@H]1C[C@H](CNC(=O)N2CCc3ccccc3[C@@H]2c2ccc(F)cc2)C1 [Compound 4029, Trans-(S)—N-((3-aminocyclobutyl)methyl)-1-(4-fluorophenyl)-3,4-dihydroisoquinoline-2(1H)-carboxamide] | 5.47
3 | CC(C)(NC(=O)N1CCc2ccccc2C1c1ccc(F)cc1)C12CC(N)(C1)C2 [Compound 4050, (S)—N-(2-(3-aminobicyclo[1.1.1]pentan-1-yl)propan-2-yl)-1-(4-fluorophenyl)-3,4-dihydroisoquinoline-2(1H)-carboxamide hydrochloride] | < 5.00
4 | N[C@H]1CC[C@@H]1COC(=O)N1CCc2ccccc2[C@@H]1c1ccc(F)cc1 [Compound 4134, ((1S,2S)-2-aminocyclobutyl)methyl (S)-1-(4-fluorophenyl)-3,4-dihydroisoquinoline-2(1H)-carboxylate] | 5.89
5 | O=C(NC12CC(N3CCOCC3)(C1)C2)N1CCc2ccccc2[C@@H]1c1ccc(F)cc1 [Compound 4013, (S)-1-(4-fluorophenyl)-N-(3-morpholinobicyclo[1.1.1]pentan-1-yl)-3,4-dihydroisoquinoline-2(1H)-carboxamide] | < 5.00
6 | CN(C)[C@H]1C[C@@H](NC(=O)N2CCc3ccccc3[C@@H]2c2ccc(F)cc2)C1 [Compound 4069] | 6.17
7 | O=C(NC12CC(NC(=O)C(F)(F)F)(C1)C2)N1CCc2ccccc2[C@@H]1c1ccc(F)cc1 [Compound 4019] | 5.63
8 | NC[C@H]1C[C@@H](NC(=O)N2CCc3ccccc3[C@@H]2c2ccc(F)cc2)C1 [Compound 4032, (S)—N-(cis-3-(aminomethyl)cyclobutyl)-1-(4-fluorophenyl)-3,4-dihydroisoquinoline-2(1H)-carboxamide] | < 5.00
9 | N[C@H]1C[C@@H](CC(=O)N2CCc3ccccc3[C@@H]2c2ccc(F)cc2)C1 [Compound 4121] | 6.44
10 | CN(C(=O)N1CCc2ccccc2[C@@H]1c1ccc(F)cc1)C12CC(N)(C1)C2 [Compound 4010, (S)—N-(3-aminobicyclo[1.1.1]pentan-1-yl)-1-(4-fluorophenyl)-N-methyl-3,4-dihydroisoquinoline-2(1H)-carboxamide] | < 5.00
11 | NC[C@@H]1CC[C@@H]1OC(=O)N1CCc2ccccc2[C@@H]1c1ccc(F)cc1 [Compound 4124] | 6.46
12 | NC12CC(NC(=O)N3CCc4ccccc4C3c3ccc(F)cc3F)(C1)C2 (single isomer, unassigned) [Compound 4138, N-(3-aminobicyclo[1.1.1]pentan-1-yl)-1-(2,4-difluorophenyl)-3,4-dihydroisoquinoline-2(1H)-carboxamide] | 5.25
13 | CNC12CC(OC(=O)N3CCc4ccccc4[C@@H]3c3ccc(F)cc3)(C1)C2 [Compound 4026, 3-(Methylamino)bicyclo[1.1.1]pentan-1-yl (S)-1-(4-fluorophenyl)-3,4-dihydroisoquinoline-2(1H)-carboxylate hydrochloride] | 6.07
14 | CC(=O)NC12CC(NC(=O)N3CCc4ccccc4[C@@H]3c3ccc(F)cc3)(C1)C2 [Compound 4016, (S)—N-(3-acetamidobicyclo[1.1.1]pentan-1-yl)-1-(4-fluorophenyl)-3,4-dihydroisoquinoline-2(1H)-carboxamide] | < 5.00
15 | O=C(NC12CC(NS(=O)(=O)C(F)(F)F)(C1)C2)N1CCc2ccccc2[C@@H]1c1ccc(F)cc1 [Compound 4020, (S)-1-(4-fluorophenyl)-N-(3-((trifluoromethyl)sulfonamido)bicyclo[1.1.1]pentan-1-yl)-3,4-dihydroisoquinoline-2(1H)-carboxamide] | 5.48
16 | N[C@H]1CC[C@H]1OC(=O)N1CCc2ccccc2[C@@H]1c1ccc(F)cc1 (single isomer, unassigned) [Compound 4037] | < 5.00
17 | N[C@H]1C[C@H](COC(=O)N2CCc3ccccc3[C@@H]2c2ccc(F)cc2)C1 [Compound 4047, (Trans-3-aminocyclobutyl)methyl (S)-1-(4-fluorophenyl)-3,4-dihydroisoquinoline-2(1H)-carboxylate] | 5.79
18 | N[C@H]1C[C@@H](NC(=O)N2CCc3ccccc3[C@@H]2c2ccc(F)cc2)CC(F)(F)C1 (single isomer, unassigned) [Compound 4142] | 6.09

Now those with a higher pEC50, led by results:

Row | pEC50 | Structure (SMILES)
19 | 7.04 | NC12CC(NC(=O)N3CCc4ccccc4C3c3ccc(F)cc3F)(C1)C2 (single isomer, unassigned) [Compound 4137, N-(3-aminobicyclo[1.1.1]pentan-1-yl)-1-(2,4-difluorophenyl)-3,4-dihydroisoquinoline-2(1H)-carboxamide]
20 | 6.61 | N[C@]1(CO)C[C@@H](C(=O)N2CCc3ccccc3[C@@H]2c2ccc(F)cc2)C1 [Compound 4152, (trans-3-amino-3-(hydroxymethyl)cyclobutyl)((S)-1-(4-fluorophenyl)-3,4-dihydroisoquinolin-2(1H)-yl)methanone]
21 | 6.61 | NC[C@H]1C[C@H](C(=O)N2CCc3ccccc3[C@@H]2c2ccc(F)cc2)C1 [Compound 4149, (trans-3-(aminomethyl)cyclobutyl)((S)-1-(4-fluorophenyl)-3,4-dihydroisoquinolin-2(1H)-yl)methanone]
22 | 6.51 | C[C@]1(N)C[C@@H](NC(=O)N2CCc3ccccc3[C@@H]2c2ccc(F)cc2)C1 [Compound 4041, (S)—N-(cis-3-amino-3-methylcyclobutyl)-1-(4-fluorophenyl)-3,4-dihydroisoquinoline-2(1H)-carboxamide hydrochloride]
23 | 7.08 | N[C@]1(CO)C[C@H](C(=O)N2CCc3ccccc3[C@@H]2c2ccc(F)cc2)C1 [Compound 4151, (cis-3-amino-3-(hydroxymethyl)cyclobutyl)((S)-1-(4-fluorophenyl)-3,4-dihydroisoquinolin-2(1H)-yl)methanone]
24 | 6.92 | C[C@]1(NC(=O)N2CCc3ccccc3[C@@H]2c2ccc(F)cc2)C[C@@H](N)C1 [Compound 4054, (S)—N-((cis)-3-amino-1-methylcyclobutyl)-1-(4-fluorophenyl)-3,4-dihydroisoquinoline-2(1H)-carboxamide]
25 | 6.49 | NC1(COC(=O)N2CCc3ccccc3[C@@H]2c2ccc(F)cc2)CC1 [Compound 4033, (1-Aminocyclopropyl)methyl (S)-1-(4-fluorophenyl)-3,4-dihydroisoquinoline-2(1H)-carboxylate hydrochloride]
26 | 7.05 | O=C(O[C@H]1C[C@H](NCCO)C1)N1CCc2ccccc2[C@@H]1c1ccc(F)cc1 [Compound 4146, trans-3-((2-hydroxyethyl)amino)cyclobutyl (S)-1-(4-fluorophenyl)-3,4-dihydroisoquinoline-2(1H)-carboxylate]
27 | 7.08 | N[C@H]1CC[C@@H](C(=O)N2CCc3ccccc3[C@@H]2c2ccc(F)cc2)CC1 [Compound 4143, cis-(S)-(4-aminocyclohexyl)(1-(4-fluorophenyl)-3,4-dihydroisoquinolin-2(1H)-yl)methanone]
28 | 6.50 | CN(C)[C@H]1C[C@H](OC(=O)N2CCc3ccccc3[C@@H]2c2ccc(F)cc2)C1 [Compound 4128]
